Assay results: publication PMC4287394 (Clinical cancer research : an official journal of the …, 2014)
“And” between values parts separate entries of the source, which are not always exact repeats. Equal entries are not always repeated.

Experiment: Phase I safety: adverse events, DLT, MTD, RP2D
Assay type: in vivo, human
Conditions: for Patients with DLT (grade 3 maculopapular rash): 21/28 schedule
[1] = 330mg 21/28, 7 patients, grade ≥3
[2] = 330mg 28/28, 10 patients, all grades
[3] = 330mg 28/28, 10 patients, grade ≥3
[4] = 330mg once-daily 28/28, 10 patients
[5] = 340mg 28/28, 7 patients, all grades
[6] = 340mg 28/28, 7 patients, grade ≥3
[7] = 400mg 28/28, 1 patient, all grades
[8] = 450mg 21/28, 3 patients, all grades
[9] = 450mg 21/28, 3 patients, grade ≥3
[10] = all dose levels 21 or 28/28, 60 patients, all grades
[11] = all dose levels 21 or 28/28, 60 patients, grade ≥3

CS(=O)(=O)N1CCN(Cc2cc3nc(-c4cccc5[nH]ncc45)nc(N4CCOCC4)c3s2)CC1 [pictilisib, 2-(1H-indazol-4-yl)-6-(4-methanesulfonyl-piperazin-1-ylmethyl)-4-morpholin-4-yl-t hieno[3,2-d]pyrimidine]
7: Diarrhea, no. of patients with treatment-related AE [2]
3: Vomiting, no. of patients with treatment-related AE [2] | Decreased appetite, no. of patients with treatment-related AE [5] | Fatigue, no. of patients with treatment-related AE [5] | Any treatment-related adverse event, no. of patients [8] | Rash (all rash preferred terms), no. of patients with treatment-related AE [8]
2 weeks: Time to spontaneous resolution of DLT rash after treatment discontinuation (450mg once-daily 21/28)
6: Decreased appetite, no. of patients with treatment-related AE [2] | Fatigue, no. of patients with treatment-related AE [2] | Any treatment-related adverse event, no. of patients [5]
1: Rash (all rash preferred terms), no. of patients with treatment-related AE [1] | Diarrhea, no. of patients with treatment-related AE [3] | Xeroderma, no. of patients with treatment-related AE [3] | Patients with grade 3 pneumonitis (340mg) | Diarrhea, no. of patients with treatment-related AE [5] | Rash (all rash preferred terms), no. of patients with treatment-related AE [5] | Any treatment-related adverse event, no. of patients [7] | Fatigue, no. of patients with treatment-related AE [7] | Nausea, no. of patients with treatment-related AE [7] | Rash (all rash preferred terms), no. of patients with treatment-related AE [7] | Decreased appetite, no. of patients with treatment-related AE [8] | Dysgeusia, no. of patients with treatment-related AE [8] | Xeroderma, no. of patients with treatment-related AE [8] | Diarrhea, no. of patients with treatment-related AE [11] | Xeroderma, no. of patients with treatment-related AE [11] | Patients with grade ≥3 hyperglycemia (whole study)
70-80%: Body surface area covered by DLT maculopapular rash (450mg once-daily 21/28, 2 patients)
10: Any treatment-related adverse event, no. of patients [2]
5: Dysgeusia, no. of patients with treatment-related AE [2] | Rash (all rash preferred terms), no. of patients with treatment-related AE [11]
approximately 2 weeks: Time of presentation of DLT rash after commencement of daily dosing (450mg once-daily 21/28)
28: Nausea, no. of patients with treatment-related AE [10]
2 of 3 and 2: Patients with DLT (grade 3 maculopapular rash) (450mg once-daily, 3 patients)
no treatment-related deaths: Treatment-related deaths (all 60 patients)
4: Rash (all rash preferred terms), no. of patients with treatment-related AE [2] | Xeroderma, no. of patients with treatment-related AE [2] | Nausea, no. of patients with treatment-related AE [5] | Vomiting, no. of patients with treatment-related AE [5]
15: Vomiting, no. of patients with treatment-related AE [10]
0: Decreased appetite, no. of patients with treatment-related AE [1] | Diarrhea, no. of patients with treatment-related AE [1] | Dysgeusia, no. of patients with treatment-related AE [1] | Fatigue, no. of patients with treatment-related AE [1] | Nausea, no. of patients with treatment-related AE [1] | Vomiting, no. of patients with treatment-related AE [1] | Xeroderma, no. of patients with treatment-related AE [1] | Decreased appetite, no. of patients with treatment-related AE [3] | Dysgeusia, no. of patients with treatment-related AE [3] | Fatigue, no. of patients with treatment-related AE [3] | Nausea, no. of patients with treatment-related AE [3] | Vomiting, no. of patients with treatment-related AE [3] | Xeroderma, no. of patients with treatment-related AE [5] | Decreased appetite, no. of patients with treatment-related AE [6] | Diarrhea, no. of patients with treatment-related AE [6] | Dysgeusia, no. of patients with treatment-related AE [6] | Fatigue, no. of patients with treatment-related AE [6] | Nausea, no. of patients with treatment-related AE [6] | Rash (all rash preferred terms), no. of patients with treatment-related AE [6] | Vomiting, no. of patients with treatment-related AE [6] | Xeroderma, no. of patients with treatment-related AE [6] | Decreased appetite, no. of patients with treatment-related AE [7] | Diarrhea, no. of patients with treatment-related AE [7] | Dysgeusia, no. of patients with treatment-related AE [7] | Vomiting, no. of patients with treatment-related AE [7] | Xeroderma, no. of patients with treatment-related AE [7] | Diarrhea, no. of patients with treatment-related AE [8] | Decreased appetite, no. of patients with treatment-related AE [9] | Diarrhea, no. of patients with treatment-related AE [9] | Dysgeusia, no. of patients with treatment-related AE [9] | Fatigue, no. of patients with treatment-related AE [9] | Nausea, no. of patients with treatment-related AE [9] | Vomiting, no. of patients with treatment-related AE [9] | Xeroderma, no. of patients with treatment-related AE [9] | Decreased appetite, no. of patients with treatment-related AE [11] | Dysgeusia, no. of patients with treatment-related AE [11] | Fatigue, no. of patients with treatment-related AE [11] | Nausea, no. of patients with treatment-related AE [11] | Vomiting, no. of patients with treatment-related AE [11]
no DLT was observed: DLT on continuous schedule (28/28 schedule (330mg, 340mg, 400mg))
9: Nausea, no. of patients with treatment-related AE [2] | Any treatment-related adverse event, no. of patients [11]
well-tolerated: Tolerability (up to 330mg (21/28 schedule))
21: Fatigue, no. of patients with treatment-related AE [10]
14: Decreased appetite, no. of patients with treatment-related AE [10] | Rash (all rash preferred terms), no. of patients with treatment-related AE [10]
1 of 7 and 1: Patients with DLT (grade 3 maculopapular rash) (330mg once-daily, 7 patients)
330 mg: Recommended Phase II dose (RP2D) (continuous once-daily oral dosing)
2: Any treatment-related adverse event, no. of patients [1] | Any treatment-related adverse event, no. of patients [3] | Rash (all rash preferred terms), no. of patients with treatment-related AE [3] | Patients with grade 1 or 2 rash [4] | Patients with grade 3 rash (after the DLT-defining window) [4] | Dysgeusia, no. of patients with treatment-related AE [5] | Any treatment-related adverse event, no. of patients [6] | Fatigue, no. of patients with treatment-related AE [8] | Nausea, no. of patients with treatment-related AE [8] | Vomiting, no. of patients with treatment-related AE [8] | Any treatment-related adverse event, no. of patients [9] | Rash (all rash preferred terms), no. of patients with treatment-related AE [9]
8: Xeroderma, no. of patients with treatment-related AE [10]
